In US20230174507A1, “IMIDAZOLE 3-OXIDE DERIVATIVE BASED ACSS2 INHIBITORS AND METHODS OF USE THEREOF” (METABOMED LTD., priority 2020, published 2023):

Tests used:
human ACSS1 protein = biological target: T1, human ACSS1 protein (Homo sapiens, UniProt Q9NUB1); assay: ACSS1 cell-free activity assay (pyrophosphatase-coupled, Biomol green); assay type: biochemical; settings: 5 nM human ACSS1, 30 minutes at room temperature, absorbance at 620 nm
T1 construct: purchased MyBioSource
T1 sequence (Q9NUB1 38-689): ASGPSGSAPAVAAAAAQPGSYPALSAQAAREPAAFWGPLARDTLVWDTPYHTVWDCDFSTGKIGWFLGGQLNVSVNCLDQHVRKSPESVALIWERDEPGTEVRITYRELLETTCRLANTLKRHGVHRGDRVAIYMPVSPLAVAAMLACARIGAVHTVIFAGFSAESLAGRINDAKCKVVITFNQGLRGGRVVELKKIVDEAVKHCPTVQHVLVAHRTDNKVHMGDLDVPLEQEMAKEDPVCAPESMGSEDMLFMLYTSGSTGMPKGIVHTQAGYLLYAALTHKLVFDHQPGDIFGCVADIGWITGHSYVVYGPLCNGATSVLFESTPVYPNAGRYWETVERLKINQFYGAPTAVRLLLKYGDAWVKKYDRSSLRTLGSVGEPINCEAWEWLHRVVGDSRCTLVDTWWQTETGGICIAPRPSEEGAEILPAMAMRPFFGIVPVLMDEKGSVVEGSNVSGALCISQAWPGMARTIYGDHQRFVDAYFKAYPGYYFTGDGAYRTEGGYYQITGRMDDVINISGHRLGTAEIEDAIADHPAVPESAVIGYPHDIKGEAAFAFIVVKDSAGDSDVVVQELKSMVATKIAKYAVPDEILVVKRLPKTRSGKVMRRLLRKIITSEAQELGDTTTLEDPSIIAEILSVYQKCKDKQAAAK
Protocol: ACSS1 Cell-Free Activity Assay (Cell-Free IC50)
(§1) The assay is based on a coupling reaction with Pyrophosphatase: ACSS1 is converting ATP+CoA+Acetate=>AMP+pyrophosphate+Acetyl-CoA (Ac-CoA). Pyrophosphatase converts pyrophosphate, a product of the ACSS1 reaction, to phosphate which can be detected by measuring the absorbance at 620 nm after incubation with the Biomol green reagent (Enzo life Science, BML-AK111).
(§2) Cell Free IC50 Determination:
5 nM of human ACSS1 protein (MyBioSource) was incubated for 30 minutes at room temperature with various compounds' concentrations in a reaction containing 50 mM Hepes pH 7.5, 10 mM DTT, 90 mM KCl, 0.006% Tween-20, 0.1 mg/ml BSA, 2 mM MgCl2, 15 μM CoA, 5 mM NaAc, 300 μM ATP and 0.5 U/ml Pyrophosphatase (Sigma). At the end of the reaction, Biomol Green was added for 30 minutes at RT and the activity was measured by reading the absorbance at 620 nm. IC50 values were calculated using non-linear regression curve fit with 0% and 100% constrains (CDD Vault, Collaborative Drug Discovery, Inc.).

human ACSS2 protein = biological target: T2, human ACSS2 protein (Homo sapiens, UniProt Q9NR19); assay: ACSS2 cell-free activity assay (pyrophosphatase-coupled, Biomol green); settings: 10 nM human ACSS2, 90 minutes at 37 C, absorbance at 620 nm; read-out: ACSS2 Biochemical IC50
T2 construct: purchased OriGene Technologies, Inc
Protocol: ACSS2 Cell-Free Activity Assay (Cell-Free IC50)
as §1, with “ACSS2” for “ACSS1”
as §2
10 nM of human ACSS2 protein (OriGene Technologies, Inc) was incubated for 90 minutes at 37 C with various compounds' concentrations in a reaction containing 50 mM Hepes pH 7.5, 10 mM DTT, 90 mM KCl, 0.006% Tween-20, 0.1 mg/ml BSA, 2 mM MgCl2, 10 μM CoA, 5 mM NaAc, 300 μM ATP and 0.5 U/ml Pyrophosphatase (Sigma). At the end of the reaction, Biomol Green was added for 30 minutes at RT and the activity was measured by reading the absorbance at 620 nm. IC50 values were calculated using non-linear regression curve fit with 0% and 100% constrains (CDD Vault, Collaborative Drug Discovery, Inc.).

T2 sequence (Q9NR19 whole entry): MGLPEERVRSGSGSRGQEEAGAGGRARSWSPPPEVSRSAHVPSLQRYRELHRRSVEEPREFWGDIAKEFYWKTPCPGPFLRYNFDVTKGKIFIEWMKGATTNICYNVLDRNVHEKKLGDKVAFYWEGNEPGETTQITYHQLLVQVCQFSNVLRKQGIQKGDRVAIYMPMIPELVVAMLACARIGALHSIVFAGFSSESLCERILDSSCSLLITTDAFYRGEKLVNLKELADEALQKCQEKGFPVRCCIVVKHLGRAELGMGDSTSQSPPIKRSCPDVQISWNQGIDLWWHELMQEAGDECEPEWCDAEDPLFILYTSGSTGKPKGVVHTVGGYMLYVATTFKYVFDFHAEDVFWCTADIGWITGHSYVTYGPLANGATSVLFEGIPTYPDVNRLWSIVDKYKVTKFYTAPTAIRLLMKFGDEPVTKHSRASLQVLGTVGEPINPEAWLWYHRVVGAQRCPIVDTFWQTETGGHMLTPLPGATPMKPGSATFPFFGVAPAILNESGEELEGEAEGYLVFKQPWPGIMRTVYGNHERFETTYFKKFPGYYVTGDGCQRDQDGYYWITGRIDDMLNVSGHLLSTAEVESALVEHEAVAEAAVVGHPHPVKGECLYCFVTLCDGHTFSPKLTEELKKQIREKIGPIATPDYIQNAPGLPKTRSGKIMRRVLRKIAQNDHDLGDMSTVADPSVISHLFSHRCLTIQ

ACSS1 Biochemical IC50 (nM) (human ACSS1 protein) | IC50 (human ACSS2 protein) | SMILES
Inactive | < 1 nM | CCC(F)(F)c1cccc(NC(=O)c2c(C)[nH]c(-c3ccc(OC)c(N4CCNCC4)c3)[n+]2[O-])c1 [Compound 164, 4-((3-(1,1-difluoropropyl)phenyl)carbamoyl)-2-(4-methoxy-3-(piperazin-1-yl)phenyl)-5-methyl-1H-imidazole 3-oxide]
Inactive | < 1 nM | CCC(F)(F)c1cccc(NC(=O)c2c(C)[nH]c(-c3ccc(OC)c(N4CCN(C)CC4)c3)[n+]2[O-])c1 [Compound 165, 4-((3-(1,1-difluoropropyl)phenyl)carbamoyl)-2-(4-methoxy-3-(4-methylpiperazin-1-yl)phenyl)-5-methyl-1H-imidazole 3-oxide]
Inactive | > 30 nM | CCC(F)(F)c1cccc(NC(=O)c2c(C)[nH]c(-c3ccc(OC)c(C4CCN(C)CC4)c3)[n+]2[O-])c1 [Compound 166, N-[3-(1,1-difluoropropyl)phenyl]-2-[4-methoxy-3-(1-methyl-4-piperidyl)phenyl]-5-methyl-3-oxido-1H-imidazol-3-ium-4-carboxamide]
Inactive | < 1 nM | COc1ccc(-c2[nH]c(C)c(C(=O)Nc3cccc(C(=O)N4CCC4)c3)[n+]2[O-])cc1-c1c(C)cccc1C [Compound 170, 4-((3-(azetidine-1-carbonyl)phenyl)carbamoyl)-2-(6-methoxy-2′,6′-dimethyl-[1,1′-biphenyl]-3-yl)-5-methyl-1H-imidazole 3-oxide]
Inactive | > 30 nM | COc1ccc(-c2[nH]c(C)c(C(=O)Nc3ccc4[nH]cnc4c3)[n+]2[O-])cc1-c1c(C)cccc1C [Compound 173, 4-((1H-benzo[d]imidazol-5-yl)carbamoyl)-2-(6-methoxy-2′,6′-dimethyl-[1,1′-biphenyl]-3-yl)-5-methyl-1H-imidazole 3-oxide]
Inactive | > 30 nM | COc1ccc(-c2[nH]c(C)c(C(=O)Nc3cccc(-c4ccc[nH]4)c3)[n+]2[O-])cc1-c1c(C)cccc1C [Compound 191, 4-((3-(1H-pyrrol-2-yl)phenyl)carbamoyl)-2-(6-methoxy-2′,6′-dimethyl-[1,1′-biphenyl]-3-yl)-5-methyl-1H-imidazole 3-oxide]
Inactive | > 30 nM | CCC(F)(F)c1cccc(NC(=O)c2c(C)n(COP(=O)(O)O)c(-c3ccc(OC)c(-c4c(C)cccc4C)c3)[n+]2[O-])c1 [Compound 193, 4-((3-(1,1-difluoropropyl)phenyl)carbamoyl)-2-(6-methoxy-2′,6′-dimethyl-[1,1′-biphenyl]-3-yl)-5-methyl-1-((phosphonooxy)methyl)-1H-imidazole 3-oxide]
Inactive | 1 to 30 nM | COc1ccc(-c2[nH]c(C)c(C(=O)Nc3cccc(CC(F)(F)F)c3)[n+]2[O-])cc1-c1c(C)cccc1C [Compound 194, 2-(6-methoxy-2′,6′-dimethyl-[1,1′-biphenyl]-3-yl)-5-methyl-4-((3-(2,2,2-trifluoroethyl)phenyl)carbamoyl)-1H-imidazole 3-oxide]
Inactive | > 30 nM | COc1ccc(-c2[nH]c(C)c(C(=O)Nc3cccc(C(O)(O)C(F)(F)F)c3)[n+]2[O-])cc1-c1c(C)cccc1C [Compound 195, 2-(6-methoxy-2′,6′-dimethyl-[1,1′-biphenyl]-3-yl)-5-methyl-4-((3-(2,2,2-trifluoro-1,1-dihydroxyethyl)phenyl)carbamoyl)-1H-imidazole 3-oxide]
Inactive | > 30 nM | COc1ccc(-c2[nH]c(C)c(C(=O)Nc3cccc(C4(C(F)(F)F)CC4)c3)[n+]2[O-])cc1-c1c(C)cccc1C [Compound 206, 2-(6-methoxy-2′,6′-dimethyl-[1,1′-biphenyl]-3-yl)-5-methyl-4-((3-(1-(trifluoromethyl)cyclopropyl)phenyl)carbamoyl)-1H-imidazole 3-oxide]
Inactive | 1 to 30 nM | COc1cc(F)c(-c2[nH]c(C)c(C(=O)Nc3cccc(C(F)(F)F)c3)[n+]2[O-])nc1-c1c(F)cccc1F [Compound 208, 2-(6-(2,6-difluorophenyl)-3-fluoro-5-methoxypyridin-2-yl)-5-methyl-4-((3-(trifluoromethyl)phenyl)carbamoyl)-1H-imidazole 3-oxide]
Inactive | 1 to 30 nM | COc1cc(F)c(-c2[nH]c(C)c(C(=O)Nc3cccc(C(F)(F)F)c3)[n+]2[O-])nc1-c1c(C)cc(F)cc1C [Compound 209, 2-(3-fluoro-6-(4-fluoro-2,6-dimethylphenyl)-5-methoxypyridin-2-yl)-5-methyl-4-((3-(trifluoromethyl)phenyl)carbamoyl)-1H-imidazole 3-oxide]

SMILES | ACSS1 Biochemical IC50 (nM) (human ACSS1 protein) | IC50 (human ACSS2 protein)
CCC(F)(F)c1cccc(NC(=O)c2c(C)n(COP(=O)(O)OC(C)(C)C)c(-c3ccc(OC)c(-c4c(C)cccc4C)c3)[n+]2[O-])c1 [Compound 188, 1-(((tert-butoxy(hydroxy)phosphoryl)oxy)methyl)-4-((3-(1,1-difluoropropyl)phenyl)carbamoyl)-2-(6-methoxy-2′,6′-dimethyl-[1,1′-biphenyl]-3-yl)-5-methyl-1H-imidazole 3-oxide] | Inactive | 1 to 30 nM
CCC(F)(F)c1cccc(NC(=O)c2c(C)n(COC(C)=O)c(-c3ccc(OC)c(-c4c(C)cccc4C)c3)[n+]2[O-])c1 [Compound 200, 1-(acetoxymethyl)-4-((3-(1,1-difluoropropyl)phenyl)carbamoyl)-2-(6-methoxy-2′,6′-dimethyl-[1,1′-biphenyl]-3-yl)-5-methyl-1H-imidazole 3-oxide] | Inactive | > 30 nM
CCC(F)(F)c1cccc(NC(=O)c2c(C)n(COP(=O)(OC)OC)c(-c3ccc(OC)c(-c4c(C)cccc4C)c3)[n+]2[O-])c1 [Compound 205, 4-((3-(1,1-difluoropropyl)phenyl)carbamoyl)-1-(((dimethoxyphosphoryl)oxy)methyl)-2-(6-methoxy-2′,6′-dimethyl-[1,1′-biphenyl]-3-yl)-5-methyl-1H-imidazole 3-oxide] | Inactive | > 30 nM
